Measured values reported in patent US20240287089A1, “Preparation and Uses of 7-Azaindenoisoquinolines” (Purdue Research Foundation, priority 0001, published 2024).

Legend:
[1] = test system: SF-539 (CNS); test: NCI-60 cytotoxicity assay; type: cell-based; conditions: Homo sapiens; SF-539 CNS; 48 h, sulforhodamine B; read-out: Comparative Cytotoxicity GI50, CNS SF-539
Procedure: (§1) The antiproliferative activities of the indenoisquinoline compounds are determined in the NCI-60 cancer cell lines of the National Cancer Institute Developmental Therapeutics Program (NCI-DTP). […] Cancer cells are incubated with the test compounds at five concentrations ranging from 100 μM to 10 nM for 48 h. After the treated cancer cells are stained with sulforhodamine B dye, the percentage growth is plotted as a function of the common logarithm of the tested compound concentration. […] The approximate average of GI50 values across the entire panel of NCI-60 cancer cell lines for each compound is recorded as the MGM value.
(§2) NCI-60 Cytotoxicity Assay. Compounds were submitted to the National Cancer Institute Developmental Therapeutic Program to determine their growth-inhibitory potentials in NCI-60 cell lines. All compounds satisfied the pre-screening proceeded into the 5-dose cell viability assay, in which cells were treated for 48 h at 5 dosages ranging from 100 μM to 10 nM.

[2] = test system: NCI-60 cancer cell lines; test: NCI-60 cytotoxicity assay, MGM; type: cell-based; conditions: Homo sapiens; entire panel of NCI-60 cancer cell lines; read-out: MGM (approximate average of GI50 values across the NCI-60 panel)
Procedure: as §1, §2

[3] = test system: HCT-116 (Colon); test: NCI-60 cytotoxicity assay; type: cell-based, human; conditions: Homo sapiens; HCT-116 colon; 48 h, sulforhodamine B; read-out: Comparative Cytotoxicity GI50, Colon HCT-116
Procedure: as §1, §2

[4] = test system: HOP-62 (Lung); test: NCI-60 cytotoxicity assay; type: cell-based, human; conditions: Homo sapiens; HOP-62 lung; 48 h, sulforhodamine B; read-out: Comparative Cytotoxicity GI50, Lung HOP-62
Procedure: as §1, §2

[5] = test system: MCF7 (Breast); test: NCI-60 cytotoxicity assay; type: cell-based, human; conditions: Homo sapiens; MCF7 breast; 48 h, sulforhodamine B; read-out: Comparative Cytotoxicity GI50, Breast MCE7
Procedure: as §1, §2

[6] = test system: DU-145 (Prostate); test: NCI-60 cytotoxicity assay; type: cell-based, human; conditions: Homo sapiens; DU-145 prostate; 48 h, sulforhodamine B; read-out: Comparative Cytotoxicity GI50, Prostate DU-145
Procedure: as §1, §2

[7] = test system: OVCAR-3 (Ovarian); test: NCI-60 cytotoxicity assay; type: cell-based, human; conditions: Homo sapiens; OVCAR-3 ovarian; 48 h, sulforhodamine B; read-out: Comparative Cytotoxicity GI50, Ovarian OVCAR-3
Procedure: as §1, §2

[8] = test system: UACC-62 (Melanoma); test: NCI-60 cytotoxicity assay; type: cell-based, human; conditions: Homo sapiens; UACC-62 melanoma; 48 h, sulforhodamine B; read-out: Comparative Cytotoxicity GI50, Melanoma UACC-62
Procedure: as §1, §2

[9] = test system: SN12C (Renal); test: NCI-60 cytotoxicity assay; type: cell-based, human; conditions: Homo sapiens; SN12C renal; 48 h, sulforhodamine B; read-out: Comparative Cytotoxicity GI50, Renal SN12C
Procedure: as §1, §2

COc1cnc2c(c1)C(=O)c1c-2n(CCCNC(C)C)c(=O)c2cc(OC)c(OC)cc12 [A11]
GI50 [1]: 1360 nM
GI50 [2]: 2340 nM
GI50 [3]: 1020 nM
GI50 [4]: 700 nM
GI50 [5]: 220 nM
GI50 [6]: 1270 nM
GI50 [7]: 8990 nM
GI50 [8]: 2430 nM
GI50 [9]: 4190 nM

COc1cnc2c(c1)C(=O)c1c-2n(CCCNCCO)c(=O)c2cc(OC)c(OC)cc12 [A12]
GI50 [1]: 490 nM
GI50 [2]: 2090 nM
GI50 [3]: 1150 nM
GI50 [4]: 350 nM
GI50 [5]: 170 nM
GI50 [6]: 730 nM
GI50 [7]: 4520 nM
GI50 [8]: 1170 nM
GI50 [9]: 3280 nM
